Active and inactive are the calls of the source.
Experiments:
Paired box protein Pax-8 = Paired box protein Pax-8 (Homo sapiens, UniProt Q06710); assay: inhibitors of PAX8-driven TPO luciferase reporter, dose response, RMG-I cells, cherry-pick (AID 687027); type: functional, cell-based;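 further: luciferase reporter driven by Pax8 target thyroperoxidase promoter measured by SteadyGlo luminescence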
[1] = microbe, parasite or virus in culture; type: functional; conditions: Mycobacterium tuberculosis
cells [2] = type: functional, cell-based
cells [3] = type: functional, cell-based; remark: listed apart in the source
[4] = biological target: T1, Rac GTPase-activating protein 1 (Homo sapiens, UniProt Q9H0H5); assay: MgcRacGAP GTPase-activating activity inhibitors, confirmation, biochemical, ADP Hunter fluorescence, primary and confirmatory (AID 624330); type: functional
T1 sequence (Q9H0H5 whole entry): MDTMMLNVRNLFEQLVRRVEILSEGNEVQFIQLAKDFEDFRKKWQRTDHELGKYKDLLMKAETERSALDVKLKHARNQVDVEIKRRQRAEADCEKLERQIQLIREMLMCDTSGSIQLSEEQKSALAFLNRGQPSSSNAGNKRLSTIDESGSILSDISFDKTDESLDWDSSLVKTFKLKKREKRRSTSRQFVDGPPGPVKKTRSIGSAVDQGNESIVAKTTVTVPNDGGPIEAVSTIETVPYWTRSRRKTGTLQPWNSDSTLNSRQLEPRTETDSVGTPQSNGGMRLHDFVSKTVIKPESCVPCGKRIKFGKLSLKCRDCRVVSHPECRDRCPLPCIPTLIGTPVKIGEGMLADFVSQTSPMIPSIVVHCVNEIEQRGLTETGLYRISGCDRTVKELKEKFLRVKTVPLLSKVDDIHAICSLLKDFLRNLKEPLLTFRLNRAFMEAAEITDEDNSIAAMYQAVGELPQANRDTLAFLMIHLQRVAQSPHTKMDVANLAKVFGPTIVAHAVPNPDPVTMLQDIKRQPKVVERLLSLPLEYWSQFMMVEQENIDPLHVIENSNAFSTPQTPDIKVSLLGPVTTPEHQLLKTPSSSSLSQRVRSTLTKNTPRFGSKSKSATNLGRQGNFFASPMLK

[5] = biological target: FAD-linked sulfhydryl oxidase ALR (Homo sapiens, UniProt P55789); assay: inhibitors of human ALR sulfhydryl oxidase, dose response, biochemical, H2O2 detection, luminescence, cherry-pick (AID 493248)
FAD-linked sulfhydryl oxidase ALR, sequence (P55789 whole entry): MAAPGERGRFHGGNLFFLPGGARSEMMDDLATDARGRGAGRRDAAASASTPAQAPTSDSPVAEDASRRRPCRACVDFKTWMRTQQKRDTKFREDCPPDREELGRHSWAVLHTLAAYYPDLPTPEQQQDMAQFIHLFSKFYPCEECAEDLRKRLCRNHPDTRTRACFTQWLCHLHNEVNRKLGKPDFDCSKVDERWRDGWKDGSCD

[6] = biological target: T2, Heat shock factor protein 1 (Mus musculus, UniProt P38532); assay: inhibition of MG132-induced HSE-luciferase signal, confirmation, cell-based, NIH3T3, luminescence, dose retest (AID 2382); type: functional;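 further: NIH3T3 fibroblasts with HSF1-driven luciferase reporter stressed by proteasome inhibitor MG132; luminescence from HSF1-driven luciferase expression after 8 hours of MG132 stress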
T2 sequence (P38532 whole entry): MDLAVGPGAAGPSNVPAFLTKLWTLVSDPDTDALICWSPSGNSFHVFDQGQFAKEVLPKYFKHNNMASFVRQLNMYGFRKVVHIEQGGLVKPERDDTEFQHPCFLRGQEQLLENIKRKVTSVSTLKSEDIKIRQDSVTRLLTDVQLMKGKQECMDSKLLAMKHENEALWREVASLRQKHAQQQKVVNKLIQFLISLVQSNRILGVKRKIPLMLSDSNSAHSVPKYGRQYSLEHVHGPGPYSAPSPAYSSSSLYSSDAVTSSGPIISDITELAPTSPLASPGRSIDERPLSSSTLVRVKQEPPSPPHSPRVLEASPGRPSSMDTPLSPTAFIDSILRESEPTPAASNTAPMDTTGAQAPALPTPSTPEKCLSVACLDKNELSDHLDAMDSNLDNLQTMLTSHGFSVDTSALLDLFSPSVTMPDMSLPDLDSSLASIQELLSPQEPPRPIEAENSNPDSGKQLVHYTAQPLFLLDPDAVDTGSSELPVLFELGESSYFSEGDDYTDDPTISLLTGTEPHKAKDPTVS

Cytochrome P450 1A2 = biological target: T3, Cytochrome P450 1A2 (Homo sapiens, UniProt P05177);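 further: PubChem cytochrome P450 panel assay, CYP1A2 panel member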
T3 sequence (P05177 whole entry): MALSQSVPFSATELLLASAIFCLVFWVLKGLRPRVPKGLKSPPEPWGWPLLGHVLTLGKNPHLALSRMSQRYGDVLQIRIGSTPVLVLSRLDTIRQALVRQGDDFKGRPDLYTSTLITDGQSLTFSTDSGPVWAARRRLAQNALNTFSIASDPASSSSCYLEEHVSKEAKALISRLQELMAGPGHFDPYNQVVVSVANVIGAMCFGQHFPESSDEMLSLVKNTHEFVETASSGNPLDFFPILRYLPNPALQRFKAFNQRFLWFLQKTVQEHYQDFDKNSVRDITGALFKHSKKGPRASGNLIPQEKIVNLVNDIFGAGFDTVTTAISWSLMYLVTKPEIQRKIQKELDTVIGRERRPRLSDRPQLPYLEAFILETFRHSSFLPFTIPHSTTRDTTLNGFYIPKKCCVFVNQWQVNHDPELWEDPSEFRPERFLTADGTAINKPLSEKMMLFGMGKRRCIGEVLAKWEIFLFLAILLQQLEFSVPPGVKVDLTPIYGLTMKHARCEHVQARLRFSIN

[7] = biological target: T4, Polyadenylate-binding protein 1 (Homo sapiens, UniProt P11940); assay: PABP1 MLLE–PAM2 binding inhibitor potency, dose response, biochemical, fluorescence polarization, FITC-PAM2 peptide (AID 602259); type: functional; conditions: read-out: IC50_Mean
T4 sequence (P11940 whole entry): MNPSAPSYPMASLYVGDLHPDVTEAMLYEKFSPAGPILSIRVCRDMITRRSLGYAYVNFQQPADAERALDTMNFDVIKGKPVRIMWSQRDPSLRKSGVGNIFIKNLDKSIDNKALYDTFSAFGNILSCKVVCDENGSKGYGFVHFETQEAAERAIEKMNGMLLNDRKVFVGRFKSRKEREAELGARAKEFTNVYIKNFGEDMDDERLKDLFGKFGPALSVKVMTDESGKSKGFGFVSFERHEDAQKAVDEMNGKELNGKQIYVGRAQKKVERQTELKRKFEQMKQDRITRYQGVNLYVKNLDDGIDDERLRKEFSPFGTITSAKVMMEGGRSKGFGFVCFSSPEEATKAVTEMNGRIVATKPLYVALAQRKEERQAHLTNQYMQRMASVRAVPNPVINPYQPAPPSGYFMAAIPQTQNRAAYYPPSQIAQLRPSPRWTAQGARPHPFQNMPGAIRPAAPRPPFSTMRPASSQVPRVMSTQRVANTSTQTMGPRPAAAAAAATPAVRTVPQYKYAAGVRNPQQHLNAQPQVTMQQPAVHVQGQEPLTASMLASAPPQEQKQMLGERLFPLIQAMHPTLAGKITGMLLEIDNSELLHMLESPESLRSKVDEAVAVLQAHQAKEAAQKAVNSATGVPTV

Cytochrome P450 2C9 = Cytochrome P450 2C9 (Homo sapiens, UniProt P11712)
Cytochrome P450 2C9, sequence (P11712 whole entry): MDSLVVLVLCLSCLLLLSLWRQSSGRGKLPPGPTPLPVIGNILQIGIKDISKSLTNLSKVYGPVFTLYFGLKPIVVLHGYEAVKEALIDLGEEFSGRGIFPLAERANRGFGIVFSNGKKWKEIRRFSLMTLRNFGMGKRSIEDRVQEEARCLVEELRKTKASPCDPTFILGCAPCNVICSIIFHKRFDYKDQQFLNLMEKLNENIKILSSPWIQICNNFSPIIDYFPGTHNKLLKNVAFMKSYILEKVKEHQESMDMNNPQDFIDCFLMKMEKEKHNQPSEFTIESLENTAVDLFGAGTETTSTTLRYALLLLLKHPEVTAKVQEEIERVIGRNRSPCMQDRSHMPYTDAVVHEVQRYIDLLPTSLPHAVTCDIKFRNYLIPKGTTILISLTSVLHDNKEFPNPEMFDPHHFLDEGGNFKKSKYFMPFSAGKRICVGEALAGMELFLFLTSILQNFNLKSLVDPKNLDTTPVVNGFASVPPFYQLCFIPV

[8] = biological target: T4, Polyadenylate-binding protein 1; assay: PABP1 MLLE–PAM2 interaction inhibitors, dose response, miRNA deadenylation inhibitor project, biochemical, fluorescence polarization, Cy5-PAM2 peptide, secondary (AID 602260); type: functional; conditions: read-out: IC50_Mean
Cytochrome P450 2C19 = Cytochrome P450 2C19 (Homo sapiens, UniProt P33261); assay: Cytochrome panel assay with activity outcomes. Panel member name: p450-cyp2c19 Compounds with AC50 equal or less than 10 uM are considered active; type: functional; conditions: read-out: AC50
Cytochrome P450 2C19, sequence (P33261 whole entry): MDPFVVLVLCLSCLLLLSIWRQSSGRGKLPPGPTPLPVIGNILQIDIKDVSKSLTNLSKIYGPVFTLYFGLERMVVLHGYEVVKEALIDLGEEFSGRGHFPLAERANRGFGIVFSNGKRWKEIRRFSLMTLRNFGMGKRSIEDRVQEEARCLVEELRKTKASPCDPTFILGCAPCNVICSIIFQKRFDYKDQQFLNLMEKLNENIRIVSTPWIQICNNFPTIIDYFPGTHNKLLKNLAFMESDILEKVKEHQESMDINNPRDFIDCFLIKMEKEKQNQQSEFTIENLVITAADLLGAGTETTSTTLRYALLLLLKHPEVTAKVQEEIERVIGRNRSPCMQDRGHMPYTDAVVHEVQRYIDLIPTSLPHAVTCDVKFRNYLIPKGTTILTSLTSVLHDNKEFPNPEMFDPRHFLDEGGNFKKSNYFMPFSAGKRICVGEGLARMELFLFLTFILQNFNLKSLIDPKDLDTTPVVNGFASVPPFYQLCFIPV

[9] = HEp-2 cell cytotoxicity, dose response, cytotoxicity control for RSV inhibitor project, HTS (AID 2410); type: functional; conditions: human respiratory syncytial virus
[10] = Luminescence Cell-Based Dose Retest to Confirm Inhibitors of Cancer Stem Cells. [Related pubchem assays (depositor defined):AID2717, AID2721]; type: functional; conditions: Homo sapiens
INS1 = assay: beta cell apoptosis inhibitors, cytokine rescue, dose response, luminescence, retest (AID 449756); type: functional, cell-based; conditions: Rattus norvegicus;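 further: cell death triggered by IL-1 beta plus TNF-alpha plus IFN-gamma mixture; protective hits raise ATP signal compared with cytokine alone wells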

Paired box protein Pax-8, sequence (Q06710 whole entry): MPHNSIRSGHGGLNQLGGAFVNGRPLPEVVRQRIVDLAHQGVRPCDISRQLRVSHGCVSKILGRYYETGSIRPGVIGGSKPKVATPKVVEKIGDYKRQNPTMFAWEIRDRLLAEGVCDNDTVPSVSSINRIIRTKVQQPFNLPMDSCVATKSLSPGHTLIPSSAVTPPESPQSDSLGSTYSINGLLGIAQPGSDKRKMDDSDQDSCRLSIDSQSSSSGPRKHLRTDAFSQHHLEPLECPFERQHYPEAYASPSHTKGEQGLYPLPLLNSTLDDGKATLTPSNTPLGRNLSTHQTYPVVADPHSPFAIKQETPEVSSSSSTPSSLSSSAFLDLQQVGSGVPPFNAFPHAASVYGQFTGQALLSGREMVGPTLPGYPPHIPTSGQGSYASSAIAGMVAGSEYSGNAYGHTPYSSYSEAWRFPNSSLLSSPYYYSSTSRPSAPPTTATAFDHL

Q: With C[C@@H]1CN([C@@H](C)CO)C(=O)c2cc(NC(=O)Nc3ccc(C(F)(F)F)cc3)ccc2O[C@@H](C)CCCCO[C@@H]1CN(C)CC1CCCCC1 as the compound, how does the AC50 (Paired box protein Pax-8) read?
A: 3.9 µM (active)

Q: With Cc1oc(C)c2c(=O)ccc3c(c12)OC(N)=C(C#N)C3c1ccccc1Cl (centres undefined) as the compound, how does the CC50 [1] read?
A: > 40 µM (active)

Q: With CCCCNC(=O)CN1C(=O)COc2ccc(S(=O)(=O)N3CCCCCC3)cc21 as the compound, how does the EC50 (cells [2]) read?
A: > 350 µM (not active)

Q: What about the EC50 (cells [3]) of the same compound?
A: > 350 µM (not active)

Q: Which CC50 [1] does the source give for CN1C(=S)SC(N(O)C(=O)Nc2ccc(Cl)c(Cl)c2)C1(C)C (centres undefined) here?
A: 38.9 µM (active)

Q: Which AC50 (Paired box protein Pax-8) does the source give for C[C@H](CO)N1C[C@H](C)[C@@H](CN(C)C(=O)NC2CCCCC2)Oc2cc(C#Cc3ccc(F)cc3)ccc2S1(=O)=O here?
A: 9.52 µM (active)

Q: With O=C(CN1CCN(c2ccc(O)cc2)CC1)N(C1CC1)C1CCS(=O)(=O)C1 (centres undefined) as the compound, how does the IC50 [4] read?
A: 80.2 µM (active)

Q: And the AC50 [5]?
A: 0.238 µM (active)

Q: What does the source list for CC(=O)C[C@H]1c2cc(F)ccc2S(=O)(=O)N1c1ccc(N(C)C)cc1?
A: IC50 [4]: 119 µM (active); EC50 [6]: 33.8 µM (active)

Q: For CC1CCN(C(=S)c2ccc(O)cc2)CC1, which AC50 (Cytochrome P450 1A2) is on record?
A: 14.1 µM (inconclusive)

Q: What about the IC50 [7] of the same compound?
A: > 66 µM (inactive)

Q: What about the AC50 (Cytochrome P450 2C9) of the same compound?
A: 39.8 µM (inconclusive)

Q: And the IC50 [8]?
A: > 66 µM (inactive)

Q: For COC(=O)C1CCN(C(=O)COC(=O)/C=C/c2ccc(O)c(OC)c2)CC1, which IC50 [4] is on record?
A: 49.7 µM (active)

Q: For CC[C@H](C)[C@@H]1O[C@@]2(C=CC1C)CC1C[C@@H](CC=C(C)C(O[C@H]3CC(OC)C(O[C@H]4CC(OC)C(O)C(C)O4)C(C)O3)C(C)C=CC=C3CO[C@@H]4C(O)C(C)=C[C@@H](C(=O)O1)[C@]34O)O2 (some centres undefined), which CC50 [1] is on record?
A: 15.9 µM (active)

Q: Which results are given for CCOc1ccc(N(C(=O)/C=C/C(=O)Nc2cc(C)on2)C(C(=O)NC2CCCC2)c2ccccc2C)cc1 (centres undefined)?
A: CC50 [1]: 20.2 µM (active); AC50 (Cytochrome P450 2C19): 31.6 µM (inconclusive)

Q: For COc1cccc(NC(=O)CSC(N)=O)c1, which IC50 [7] is on record?
A: > 66 µM (inactive)

Q: And the IC50 [8]?
A: > 66 µM (inactive)

Q: Which EC50 (cells [2]) does the source give for CCOC(=O)C(/C=N/c1ccc(NC2=NCC(C)S2)cc1)=C(/O)OCC (centres undefined) here?
A: > 350 µM (not active)

Q: And the EC50 (cells [3])?
A: > 350 µM (not active)

Q: With FC(F)(F)c1cccc(NC(S)=NN=C(S)NCc2ccccc2)c1 as the compound, how does the IC50 [7] read?
A: > 66 µM (inactive)

Q: And the IC50 [8]?
A: > 66 µM (inactive)

Q: With CC(C)c1ccc(/C=N/N2CCN(c3ccccn3)CC2)cc1 as the compound, how does the CC50 [9] read?
A: 35.7 µM (active)

Q: For O=C(CN1C(=O)c2ccccc2S1(=O)=O)c1ccc(O)c(O)c1, which IC50 [4] is on record?
A: 175 µM (active)

Q: Which AC50 [10] does the source give for CCN(CC)S(=O)(=O)c1ccc(N/N=C/c2cc(OC)ccc2O)nc1 here?
A: 4.47 µM (active)

Q: What about the EC50 (cells [2]) of the same compound?
A: 302 µM (active)

Q: And the AC50 (INS1)?
A: 1.69 µM (active)

Q: What about the EC50 (cells [3]) of the same compound?
A: 25.7 µM (active)

Q: With COc1ccc(Br)cc1C(=O)NC(=S)Nc1cc(-c2nc3ccccc3[nH]2)ccc1C as the compound, how does the AC50 [10] read?
A: > 195 µM (inactive)

Q: And the IC50 [7]?
A: > 66 µM (inactive)

Q: What about the IC50 [8] of the same compound?
A: > 66 µM (inactive)

Q: For Cc1onc(-c2ccccc2Cl)c1C(=O)Nc1sc2c(c1C(N)=O)CCC(C)C2 (centres undefined), which CC50 [9] is on record?
A: 19.3 µM (active)
